Data as given in paper PMC9481608, “Synthesis of natural product hybrids by the Ugi reaction in complex media containing plant extracts” (Scientific Reports, 2022).

The compounds below were run against T1, α-chymotrypsin (bovine pancreatic) (Bos taurus, UniProt P00766) (assay: chromogenic protease inhibition assay, absorbance at […] nm). Details: not given.
T1 construct: native enzyme from bovine pancreas, commercial, used as received
Format: biochemical
In the case of CCCCCC[C@@H](O)C/C=C\CCCCCCCC(=O)O[C@@H](C/C=C\CCCCCCCC(=O)N(Cc1ccccc1)C(CC(C)CCC=C(C)C)C(=O)NC1CCCCC1)CCCCCC (stereo partly shown) [8b, Ugi adduct 8b], the IC50 is reported as 13.4 ± 1.3 µM.
For CCCCCC[C@@H](O)C/C=C\CCCCCCCC(=O)N(Cc1ccccc1)C(C(=O)NC1CCCCC1)c1ccccc1 (stereo partly shown) [compound 9, Ugi adduct 9], the IC50 was 7.9 ± 0.5 µM.
With CC(C)=C1C[C@@H]2[C@@H](CCC(C)(C(=O)NC3CCCCC3)N(C(=O)CCl)c3ccc4ccc5cccc6ccc3c4c56)[C@]2(C)CC1=O (stereo partly shown) [compound 7, Ugi adduct 7] the IC50 was 3.1 ± 0.1 µM.
In the case of CCCCCC[C@@H](O)C/C=C\CCCCCCCC(=O)N(Cc1ccccc1)C(C)(CC[C@@H]1[C@H]2CC(=C(C)C)C(=O)C[C@@]12C)C(=O)NC1CCCCC1 (mixture of isomers) [compound 10, Ugi adduct 10], the IC50 is reported as 7.7 ± 0.6 µM.
Compound CCCCCC[C@@H](O)C/C=C\CCCCCCCC(=O)N(Cc1ccccc1)C(CC(C)CCC=C(C)C)C(=O)NC1CCCCC1 (stereo partly shown) [8a, Ugi adduct 8a] has an IC50 of 7.3 ± 0.6 µM.

The compounds below were run against T1, α-chymotrypsin (bovine pancreatic) in the same assay as above. Details: 100 μM SAAPFpNA, 6 nM enzyme, 80 mM Tris-HCl pH 7.8, 10 mM CaCl2, 25 °C, 30 min preincubation, 3% DMSO.
Format: biochemical
With CC(=O)N(Cc1ccccc1)C(C)(CC[C@@H]1[C@H]2CC(=C(C)C)C(=O)C[C@@]12C)C(=O)NC1CCCCC1 (mixture of isomers) [compound 5, Ugi adduct 5] the “% Inhibition (10 μM)^a” value was 4.2 ± 1.7%.
In the case of CC(=O)N(Cc1ccccc1)C(CC(C)CCC=C(C)C)C(=O)NCS(=O)(=O)c1ccc(C)cc1 (racemic) [compound 2, Ugi adduct 2], the “% Inhibition (10 μM)^a” value is reported as 9.2 ± 1.6%.
For CC(C)=C1C[C@@H]2[C@@H](CCC(C)(C(=O)NC3CCCCC3)N(Cc3ccccc3)C(=O)CCl)[C@]2(C)CC1=O (mixture of isomers) [compound 4, Ugi adduct 4], the “% Inhibition (10 μM)^a” value was 3.1 ± 0.9%.

The compounds below were run against T1, α-chymotrypsin (bovine pancreatic) (assay: biochemical). Details: not given.
Design: alpha-chymotrypsin inhibition, SAAPFpNA (100 uM) hydrolysis, absorbance at 410 nm, 25 °C, pH 7.8
Experimental: Bovine pancreatic α-chymotrypsin was purchased from Sigma-Aldrich (C4129) and used as received. Enzyme solutions were kept on ice during the experiments. The molecular mass of α-chymotrypsin was taken as 25 kDa. N-Succinyl-L-alanine-L-alanine-L-proline-L-phenylalanine-p-nitroanilide (SAAPFpNA) was purchased from Sigma-Aldrich (S7388), prepared as a 10 mM stock solution in DMSO, and stored at − 30 °C. A microbial chymostatin, a mixture of chymostatin A–C, was purchased from Peptide Institute (4063) and used as a positive control. DMSO for biochemical research was purchased from Nacalai and used as received. Other reagents were purchased from Nacalai and used as received. The concentration–response curves were plotted and IC50 values were calculated by GraphPad Prism 8 software using a sigmoidal concentration–response curve analysis with variable slope. Absorbance was measured with a JASCO V-660 spectrometer at 25 °C. According to the reported procedure, the assay was performed in Tris–HCl buffer (80 mM, pH 7.8) containing α-chymotrypsin (6 nM, final concentration) and CaCl2 (10 mM, final concentration). After 30 min of incubation with the test compound at 25 °C, the enzymatic reaction was initiated by adding SAAPFpNA (100 μM, final concentration) to give a final volume of 700 μL. Reaction progress was monitored by absorbance at 410 nm at 25 °C for 5 min. The final concentration of DMSO was 3% (v/v). The prepared Ugi adducts have a diamide motif and were therefore subjected to a protease inhibition assay. Protease inhibitors have received increasing attention for their therapeutic potential against respiratory virus infections including severe acute respiratory syndrome coronavirus 2 (SARS-CoV-2)[34],[35]. The inhibitory activity of the Ugi adducts was determined in the presence of 6 nM α-chymotrypsin and 100 μM succinyl-Ala-Ala-Pro-Phe-p-nitroanilide[36]. […] Thus, the proposed engineering method, although preliminary, can be used to create novel candidates for α-chymotrypsin inhibitors. Further structural optimization, such as removal of the benzyl group on the amide nitrogen, construction of a dipeptide motif, and installation of an aromatic amino acid residue at the C-terminal of dipeptides[37] will improve the inhibitory activities of the Ugi adducts and will be reported in due course. The molecular weights of the synthesized plant product-like molecules were in the range of 492.70–1011.57 g mol^−1, which corresponds to the category of beyond the rule of five (bRo5)[38], or middle-molecules. Therefore, the present chemical hybridization method could be used to construct a small library of middle-molecules mimicking natural products, which is useful for the discovery of peptidic modulators of protein–protein interactions. Ongoing biological evaluations of the present molecules will unveil their specific pharmaceutical potential.
In the case of O=C(NC1CCCCC1)C(c1ccccc1)N(C(=O)CCl)c1ccc2ccc3cccc4ccc1c2c34 (stereo not shown) [1g, 2-Chloro-N-(2-(cyclohexylamino)-2-oxo-1-phenylethyl)-N-(pyren-1-yl)acetamide], the IC50 is reported as 4.5 ± 0.3 µM and the inhibition at 10 µM is reported as 83.7 ± 1.8%.
CC1=C(C(C(=O)NC2CCCCC2)N(Cc2ccccc2)C(=O)CCl)C(C)(C)CCC1 (stereo not shown) [1d, N-Benzyl-2-chloro-N-(2-(cyclohexylamino)-2-oxo-1-(2,6,6-trimethylcyclohex-1-en-1-yl)ethyl)acetamide] gave an inhibition at 10 µM of 8.9 ± 2.1%.
O=C(NC1CCCCC1)C(c1ccccc1)N(Cc1ccccc1)C(=O)C1CCCCC1 (stereo not shown) [1i, N-Benzyl-N-(2-(cyclohexylamino)-2-oxo-1-phenylethyl)cyclohexanecarboxamide] showed an inhibition at 10 µM of 3.8 ± 0.4%.
With CC(C)=CCCC(C)CC(C(=O)NC1CCCCC1)N(Cc1ccccc1)C(=O)CC[C@@H](C)[C@H]1CC[C@H]2[C@@H]3[C@@H](O)C[C@@H]4C[C@H](O)CC[C@]4(C)[C@H]3CC[C@]12C (stereo partly drawn) [1j, 2-((R)-N-Benzyl-4-((3R,5S,7S,8R,9S,10S,13R,14S,17R)-3,7-dihydroxy-10,13-dimethylhexadecahydro-1H-cyclopenta[a]phenanthren-17-yl)pentanamido)-N-cyclohexyl-4,8-dimethylnon-7-enamide] the IC50 was 9.2 ± 0.8 µM and the inhibition at 10 µM was 62.3 ± 0.2%.
Compound Cc1ccc(S(=O)(=O)CNC(=O)C2(N(Cc3ccccc3)C(=O)CCl)CCCC2)cc1 [1f, 1-(N-Benzyl-2-chloroacetamido)-N-(tosylmethyl)cyclopentane-1-carboxamide] has an inhibition at 10 µM of 7.1 ± 1%.
O=C(NC1CCCCC1)C(c1ccccc1)N(Cc1ccccc1)C(=O)CCl (stereo not shown) [1b, N-Benzyl-2-chloro-N-(2-(cyclohexylamino)-2-oxo-1-phenylethyl)acetamide] gave an inhibition at 10 µM of 9.2 ± 2%.
Compound CC(C)C(C(=O)NC1CCCCC1)N(Cc1ccccc1)C(=O)CCl (stereo not shown) [1c, 2-(N-Benzyl-2-chloroacetamido)-N-cyclohexyl-3-methylbutanamide] has an inhibition at 10 µM of 4.4 ± 2%.
For Cc1ccc(S(=O)(=O)CNC(=O)C(c2ccccc2)N(Cc2ccccc2)C(=O)CCl)cc1 (stereo not shown) [1a, N-Benzyl-2-chloro-N-(2-oxo-1-phenyl-2-((tosylmethyl)amino)ethyl)acetamide], the inhibition at 10 µM was 4.7 ± 1.1%.
In the case of CC(=O)N(Cc1ccccc1)C(C(=O)NC1CCCCC1)c1ccccc1 (stereo not shown) [1h, 2-(N-Benzylacetamido)-N-cyclohexyl-2-phenylacetamide], the inhibition at 10 µM is reported as 2.4 ± 1.6%.
O=C(CCl)N(Cc1ccccc1)C1(C(=O)NC2CCCCC2)CCCC1 [1e, 1-(N-Benzyl-2-chloroacetamido)-N-cyclohexylcyclopentane-1-carboxamide] was tested, and the inhibition at 10 µM was 0.2 ± 0.8%.

Same assay, conditions: read-out: % Inhibition (10 μM)
Work on CCCCCC[C@@H](O)C/C=C\CCCCCCCC(=O)O [(R)-Ricinoleic acid] yielded an inhibition at 10 µM of 3 ± 0.9%.
CC(=O)CC[C@@H]1[C@H]2CC(=C(C)C)C(=O)C[C@@]12C [Curcumenone (6)] gave an inhibition at 10 µM of 7.8 ± 1.2%.
In the case of NCc1ccccc1 [Benzylamine], the inhibition at 10 µM is reported as 7 ± 1.4%.
[C-]#[N+]CS(=O)(=O)c1ccc(C)cc1 [TosMIC] showed an inhibition at 10 µM of 0.5 ± 0.5%.
In the case of Nc1ccc2ccc3cccc4ccc1c2c34 [1-Aminopyrene], the inhibition at 10 µM is reported as 5.6 ± 1%.
